In patent US20250230138A1, “COMPOUNDS HAVING A T-STRUCTURE FORMED BY AT LEAST FOUR CYCLES FOR USE IN THE TREATMENT OF CANCER AND OTHER INDICATIONS” (TheRas, Inc., priority 2022, published 2025):
Read-outs that look alike come from different tables or passages of the source.

Experiments:
pAKT in BT474 cells = experiment: Cell-based pAKT HTRF assay in BT474 cells; conditions: BT474 cells, 4 hr incubation, Compounds 10-999, read-out: pAKT inhibition IC50 in BT474 cells
Summary of the method: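 The HTRF signal (excitation 320 nm, emission 615 nm) came from d2/Eu Cryptate antibodies added to lysates and incubated 4–24 h at room temperature. Those lysates were taken from cells treated for 4 hr with compound, top concentration 3 μM, in 0.25% DMSO.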

[1] = target: Cys242 in human PIK3CA (157-299) (Homo sapiens (Human), UniProt P42336); experiment: Covalent modification assay using MALDI-TOF MS; format: biochemical; conditions: 4 h reaction time point; 3.33 μM protein target, 1:7.5 protein to compound ratio (compounds 1-852)
Summary of the method: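 PIK3CA (157-299), 3.33 or 1 μM in 20 mM HEPES, 150 mM NaCl, 2 mM MgCl2, pH 7.3, was incubated with compound at room temperature in the dark for 15 min, 30 min, 2 h or 4 h. Linear MALDI-TOF read-out; % modification = adduct peak height over summed heights of all protein species.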

Chain of Cys242 in human PIK3CA (157-299) (P42336 157-299): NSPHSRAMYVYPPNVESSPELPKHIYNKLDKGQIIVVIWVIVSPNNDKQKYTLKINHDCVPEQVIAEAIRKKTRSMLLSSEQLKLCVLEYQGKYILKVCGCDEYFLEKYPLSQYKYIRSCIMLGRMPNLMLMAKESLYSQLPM

| SMILES | IC50 (pAKT in BT474 cells) | IC50 (pAKT in BT474 cells; Homo sapiens, BT-474) | % of modification [1] |
| --- | --- | --- | --- |
| C=CC(=O)N1CCc2nc(-c3nc(-c4ccc5c(c4)CNCCC5)c4ccsc4c3-c3ccc(F)cc3OCCOC)sc2C1 [Compound 168] | < 100 nM |  | A (percent of modification of PIK3CA protein ≥75%) |
| C=CC(=O)N1CC(n2cc(-c3nc(-c4ccc5c(c4)CCNC5)c4ccnn4c3-c3ccc(F)cc3OC)cn2)C1 [Compound 169, 1-[3-[4-[7-(4-fluoro-2-methoxy-phenyl)-4-(1,2,3,4-tetrahydroisoquinolin-6-yl)pyrazolo[1,5-a]pyrazin-6-yl]pyrazol-1-yl]azetidin-1-yl]prop-2-en-1-one] |  | 100 to 1000 nM | B (50%<percent of modification <75%) |
| C=CC(=O)N1CC(n2cc(-c3nc(-c4ccc5c(c4)CCNC5)c4ccsc4c3-c3cccc(=O)n3CCOC)cn2)C1 [Compound 170] | 1000 to 3000 nM |  | D (percent of modification <25%) |
| COc1cc(F)ccc1-c1c(-c2cnn(C3CN(C(=O)C(F)Cl)C3)c2)nc(-c2ccc3c(c2)CCNC3)c2ccsc12 (centres unmarked) [Compound 171] | > 3000 nM |  | D (percent of modification <25%) |
| C=CC(=O)N1CC(n2cc(-c3nc(-c4ccc(C(N)=O)cc4)c4ccsc4c3-c3ccc(F)cc3OC)cn2)C1 [Compound 172] | < 100 nM |  | A (percent of modification of PIK3CA protein ≥75%) |
| C=CC(=O)N1CC[C@H](n2cc(-c3nc(-c4ccc5c(c4)CCNC5)c4ccsc4c3-c3ccc(F)cc3OCCOC)ccc2=O)C1 [Compound 173] | 100 to 1000 nM |  | A (percent of modification of PIK3CA protein ≥75%) |
| C=CC(=O)N1CCc2nc(-c3nc(-c4ccc(N5CCNCC5)nc4)c4ccsc4c3-c3ccc(F)cc3OCCOC)sc2C1 [Compound 174] | < 100 nM |  | A (percent of modification of PIK3CA protein ≥75%) |
| C=CC(=O)N1CCc2nc(-c3nc(N4CCC(N(C)C)CC4)c4ccsc4c3-c3ccc(F)cc3OCCOC)sc2C1 [Compound 175] | 100 to 1000 nM |  | A (percent of modification of PIK3CA protein ≥75%) |
| C=CC(=O)N1CCc2nc(-c3nc(N4CCN(C(C)C)C(=O)C4)c4ccsc4c3-c3ccc(F)cc3OCCOC)sc2C1 [Compound 176] | 100 to 1000 nM |  | A (percent of modification of PIK3CA protein ≥75%) |
| C=CC(=O)N1CC(n2cc(-c3nc(-c4ccnc(N)c4)c4ccsc4c3-c3ccc(F)cc3OCCOC)ccc2=O)C1 [Compound 177] | 100 to 1000 nM |  | B (50%<percent of modification <75%) |
| C=CC(=O)N1CC(n2cc(-c3nc(-c4ccc5c(c4)CCNC5)c4ccsc4c3-c3ccc(F)cc3OCCOC)cc(C)c2=O)C1 [Compound 178] | < 100 nM |  | A (percent of modification of PIK3CA protein ≥75%) |
| C=CC(=O)N1CC(n2cc(-c3nc(-c4ccn(C)c(=O)c4)c4ccsc4c3-c3ccc(F)cc3OC)cn2)C1 [Compound 179] | < 100 nM |  | A (percent of modification of PIK3CA protein ≥75%) |
| C=CC(=O)N1CCC(CO)(n2cc(-c3nc(-c4ccc5c(c4)CCNC5)c4ccsc4c3-c3ccc(F)cc3OC)cn2)CC1 [Compound 180, 1-[4-[4-[7-(4-fluoro-2-methoxy-phenyl)-4-(1,2,3,4-tetrahydroisoquinolin-6-yl)thieno[3,2-c]pyridin-6-yl]pyrazol-1-yl]-4-(hydroxymethyl)-1-piperidyl]prop-2-en-1-one] |  | 100 to 1000 nM | A (percent of modification of PIK3CA protein ≥75%) |
| C=CC(=O)N1CCC(n2cc(-c3nc(-c4ccc5c(c4)CCNC5)c4ccsc4c3-c3ccc(F)cc3OCCOC)ccc2=O)CC1 [Compound 181] | 100 to 1000 nM |  | A (percent of modification of PIK3CA protein ≥75%) |
| C=CC(=O)N1CCc2nc(-c3nc(-c4ccc5c(c4)CCNC5)c4ccsc4c3-c3ccc(F)cc3OCC3CCNC(=O)C3)sc2C1 (centres unmarked) [Compound 182] | < 100 nM |  | A (percent of modification of PIK3CA protein ≥75%) |

Now from value to molecule, other results behind:

| IC50 (pAKT in BT474 cells) | IC50 (pAKT in BT474 cells; Homo sapiens, BT-474) | SMILES | % of modification [1] |
| --- | --- | --- | --- |
| 100 to 1000 nM |  | C=CC(=O)N1CC(n2cc(-c3nc(-c4cnn(C)c(=O)c4)c4ccsc4c3-c3ccc(F)cc3OC)cn2)C1 [Compound 183] | A (percent of modification of PIK3CA protein ≥75%) |
| < 100 nM |  | C=CC(=O)N1CCn2nc(-c3nc(-c4ccc5c(c4)CCNC5=O)c4ccsc4c3-c3ccc(F)cc3OCCOC)nc2C1 [Compound 184] | A (percent of modification of PIK3CA protein ≥75%) |
|  | < 100 nM | C=CC(=O)N1CCn2nc(-c3nc(-c4ccc5c(c4)CCN(C(C)C)C5)c4ccsc4c3-c3ccc(F)cc3OCCOC)nc2C1 [Compound 185, 1-[2-[7-[4-fluoro-2-(2-methoxyethoxy)phenyl]-4-(2-isopropyl-3,4-dihydro-1H-isoquinolin-6-yl)thieno[3,2-c]pyridin-6-yl]-6,8-dihydro-5H-[1,2,4]triazolo[1,5-a]pyrazin-7-yl]prop-2-en-1-one] | A (percent of modification of PIK3CA protein ≥75%) |
| < 100 nM |  | C=CC(=O)N1CCn2nc(-c3nc(-c4ccnc(N)c4)c4ccsc4c3-c3ccc(F)cc3OCCOC)nc2C1 [Compound 186] | A (percent of modification of PIK3CA protein ≥75%) |
| < 100 nM |  | C=CC(=O)N1CCc2nc(-c3nc(-c4cnn(C)c4)c4ccsc4c3-c3ccc(F)cc3OCC3CNC(=O)C3)sc2C1 (centres unmarked) [Compound 187] | A (percent of modification of PIK3CA protein ≥75%) |
| 100 to 1000 nM |  | C=CC(=O)N1CC[C@H](n2cc(-c3nc(-c4ccc5c(c4)CCNC5)c4ccsc4c3-c3ccc(F)cc3OCCOC)ccc2=O)[C@H]1C [Compound 188] | A (percent of modification of PIK3CA protein ≥75%) |
|  | < 100 nM | C=CC(=O)N1CCn2nc(-c3nc(-c4ccc5c(c4)CCNC5=O)c4ccsc4c3-c3ccc(F)cc3OCCOC)cc2C1 [Compound 189, 6-[7-[4-fluoro-2-(2-methoxyethoxy)phenyl]-6-(5-prop-2-enoyl-6,7-dihydro-4H-pyrazolo[1,5-a]pyrazin-2-yl)thieno[3,2-c]pyridin-4-yl]-3,4-dihydro-2H-isoquinolin-1-one] | A (percent of modification of PIK3CA protein ≥75%) |
|  | < 100 nM | C=CC(=O)N1CCn2nc(-c3nc(-c4ccc5c(c4)CCN(C(C)C)C5)c4ccsc4c3-c3ccc(F)cc3OCCOC)cc2C1 [Compound 190, 1-[2-[7-[4-fluoro-2-(2-methoxyethoxy)phenyl]-4-(2-isopropyl-3,4-dihydro-1H-isoquinolin-6-yl)thieno[3,2-c]pyridin-6-yl]-6,7-dihydro-4H-pyrazolo[1,5-a]pyrazin-5-yl]prop-2-en-1-one] | A (percent of modification of PIK3CA protein ≥75%) |
| < 100 nM |  | C=CC(=O)N1CCn2nc(-c3nc(-c4cnn(C)c4)c4ccsc4c3-c3ccc(F)cc3OCCOC)nc2C1 [Compound 191] | A (percent of modification of PIK3CA protein ≥75%) |
| < 100 nM |  | C=CC(=O)N1CCn2nc(-c3nc(-c4ccc5c(c4)C(O)CC5)c4ccsc4c3-c3ccc(F)cc3OCCOC)nc2C1 (centres unmarked) [Compound 192] | A (percent of modification of PIK3CA protein ≥75%) |
| < 100 nM |  | C=CC(=O)N1CCn2nc(-c3nc(-c4ccnc(N)c4)c4ccsc4c3-c3ccc(F)cc3OCCOC)nc2C1 [Compound 193] | A (percent of modification of PIK3CA protein ≥75%) |
|  | < 100 nM | C=CC(=O)N1CCn2nc(-c3nc(-c4cnn(C)c4)c4ccsc4c3-c3ccc(F)cc3OCCOC)cc2C1 [Compound 194, 1-[2-[7-[4-fluoro-2-(2-methoxyethoxy)phenyl]-4-(1-methylpyrazol-4-yl)thieno[3,2-c]pyridin-6-yl]-6,7-dihydro-4H-pyrazolo[1,5-a]pyrazin-5-yl]prop-2-en-1-one] | A (percent of modification of PIK3CA protein ≥75%) |
|  | < 100 nM | C=CC(=O)N1CCn2nc(-c3nc(-c4ccc(=O)n(C)c4)c4ccsc4c3-c3ccc(F)cc3OCCOC)cc2C1 [Compound 195, 5-[7-[4-fluoro-2-(2-methoxyethoxy)phenyl]-6-(5-prop-2-enoyl-6,7-dihydro-4H-pyrazolo[1,5-a]pyrazin-2-yl)thieno[3,2-c]pyridin-4-yl]-1-methyl-pyridin-2-one] | A (percent of modification of PIK3CA protein ≥75%) |
| 100 to 1000 nM |  | C=CC(=O)N1CC(n2cc(-c3nc(-c4ccc(S(=O)(=O)NC)cc4)c4ccsc4c3-c3ccc(F)cc3OC)cn2)C1 [Compound 196] | A (percent of modification of PIK3CA protein ≥75%) |
| < 100 nM |  | C=CC(=O)N1CCn2nc(-c3nc(-c4ccnc(N)c4)c4ccsc4c3-c3ccc(F)cc3OCCO)nc2C1 [Compound 197] | A (percent of modification of PIK3CA protein ≥75%) |
|  | < 100 nM | C=CC(=O)N1CCn2nc(-c3nc(N4CCC5(CC4)COC5)c4ccsc4c3-c3ccc(F)cc3OCCOC)cc2C1 [Compound 198, 1-[2-[7-[4-fluoro-2-(2-methoxyethoxy)phenyl]-4-(2-oxa-7-azaspiro[3.5]nonan-7-yl)thieno[3,2-c]pyridin-6-yl]-6,7-dihydro-4H-pyrazolo[1,5-a]pyrazin-5-yl]prop-2-en-1-one] | A (percent of modification of PIK3CA protein ≥75%) |
